According to ChEMBL document CHEMBL1201862, “PubChem BioAssay data set” (2004):
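48-hour exposure; five concentrations; linearly interpolated endpoints. Here, GI50 denotes the concentration required for 50% inhibition of growth.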 Activity calls are given as the source filed them. No stated cut-off is given here; in the data, active = GI50 up to about 1.1 µM and inactive = higher.

Key:
Experiment in all cases: NCI-60 cell line screen, 48 h
COLO 205 = tested on: COLO 205
DU-145 = tested on: DU-145
HCC 2998 = tested on: HCC 2998
HCT-116 = tested on: HCT-116
HCT-15 = tested on: HCT-15
HL-60 = tested on: HL-60
HOP-62 = tested on: HOP-62
HOP-92 = tested on: HOP-92
IGROV-1 = tested on: IGROV-1
M14 = tested on: M14
MDA-MB-435 = tested on: MDA-MB-435
NCI-H226 = tested on: NCI-H226
NCI-H460 = tested on: NCI-H460
OVCAR-3 = tested on: OVCAR-3
OVCAR-5 = tested on: OVCAR-5
PC-3 = tested on: PC-3
SF-268 = tested on: SF-268
SF-539 = tested on: SF-539
SK-MEL-5 = tested on: SK-MEL-5
SNB-75 = tested on: SNB-75

N=C(N)NCCCC(NCc1c2ccccc2nc2ccccc12)C(=O)O (stereo not given)
GI50 (COLO 205): 37.9 µM (inactive) | GI50 (DU-145): > 100 µM (inactive) | GI50 (HCC 2998): 33.5 µM (inactive) | GI50 (HCT-116): 11.4 µM (inactive) | GI50 (HCT-15): 29.4 µM | GI50 (HL-60): 11 µM (inactive) | GI50 (HOP-62): 37.1 µM (inactive) | GI50 (HOP-92): 7.93 µM (inactive) | GI50 (IGROV-1): 34.7 µM (inactive) | GI50 (M14): 48.1 µM (inactive) | GI50 (MDA-MB-435): 41.8 µM (inactive) | GI50 (NCI-H226): > 81.8 µM (inactive) | GI50 (NCI-H460): 36.1 µM (inactive) | GI50 (OVCAR-3): 40.9 µM (inactive) | GI50 (OVCAR-5): > 100 µM (inactive) | GI50 (PC-3): 35.2 µM (inactive) | GI50 (SF-268): 47.6 µM (inactive) | GI50 (SF-539): 33 µM (inactive) | GI50 (SK-MEL-5): > 41.8 µM (inactive) | GI50 (SNB-75): 45.2 µM (inactive)

CC1=NN(C(=O)CSc2nc3ccc(I)cc3c(=O)n2Cc2ccccc2)C(=O)C1
GI50 (COLO 205): 33.5 µM (inactive) | GI50 (DU-145): 37.1 µM (inactive) | GI50 (HCC 2998): 39.1 µM (inactive) | GI50 (HCT-116): 29.9 µM (inactive) | GI50 (HCT-15): 21.5 µM | GI50 (HL-60): 33.3 µM (inactive) | GI50 (HOP-62): 39.6 µM (inactive) | GI50 (HOP-92): 36.1 µM (inactive) | GI50 (IGROV-1): 28.8 µM (inactive) | GI50 (M14): 31.7 µM (inactive) | GI50 (MDA-MB-435): 26.4 µM (inactive) | GI50 (NCI-H226): 43.9 µM (inactive) | GI50 (NCI-H460): 31.8 µM (inactive) | GI50 (OVCAR-3): 27.9 µM (inactive) | GI50 (OVCAR-5): 65.2 µM (inactive) | GI50 (PC-3): 17.2 µM (inactive) | GI50 (SF-268): 21.4 µM (inactive) | GI50 (SF-539): 35.8 µM (inactive) | GI50 (SK-MEL-5): 21.7 µM (inactive) | GI50 (SNB-75): 35.3 µM (inactive)

COc1ccc(/C=C2\CCC/C(=C\c3ccc(O)c(CN4CCCCC4)c3)C2=O)cc1
GI50 (COLO 205): 8.09 µM (inactive) | GI50 (DU-145): 9.02 µM (inactive) | GI50 (HCC 2998): 5.45 µM (inactive) | GI50 (HCT-116): 2.82 µM (inactive) | GI50 (HCT-15): 3.52 µM | GI50 (HL-60): 6.93 µM (inactive) | GI50 (HOP-62): 12.4 µM (inactive) | GI50 (HOP-92): 9.79 µM (inactive) | GI50 (IGROV-1): 4.7 µM (inactive) | GI50 (M14): 4.06 µM (inactive) | GI50 (MDA-MB-435): 3.1 µM (inactive) | GI50 (NCI-H226): 6.67 µM (inactive) | GI50 (NCI-H460): 4.98 µM (inactive) | GI50 (OVCAR-3): 10.8 µM (inactive) | GI50 (OVCAR-5): 22.5 µM (inactive) | GI50 (PC-3): 4.74 µM (inactive) | GI50 (SF-268): 3.31 µM (inactive) | GI50 (SF-539): 3.08 µM (inactive) | GI50 (SK-MEL-5): 4.25 µM (inactive) | GI50 (SNB-75): 12.6 µM (inactive)

C/C=C(/C)C(=O)O[C@H]1[C@H]2[C@@H]([C@@H](OC(C)=O)[C@H](C)C(=O)[C@@]34C[C@@H](C)C(=O)[C@]3(/C=C(\C)[C@H]1OC(C)=O)O4)C2(C)C
GI50 (COLO 205): 2.6 µM (inactive) | GI50 (DU-145): 1.66 µM (inactive) | GI50 (HCC 2998): 5.16 µM (inactive) | GI50 (HCT-116): 3.1 µM (inactive) | GI50 (HCT-15): 3 µM | GI50 (HL-60): 0.305 µM (active) | GI50 (HOP-62): 3.15 µM (inactive) | GI50 (HOP-92): 3.08 µM (inactive) | GI50 (IGROV-1): 4.5 µM (inactive) | GI50 (M14): 2.47 µM (inactive) | GI50 (MDA-MB-435): 2.99 µM (inactive) | GI50 (NCI-H226): 3.51 µM (inactive) | GI50 (NCI-H460): 1.31 µM (inactive) | GI50 (OVCAR-3): 3.95 µM (inactive) | GI50 (OVCAR-5): 3.94 µM (inactive) | GI50 (PC-3): 3.45 µM (inactive) | GI50 (SF-268): 5.98 µM (inactive) | GI50 (SF-539): 3.1 µM (inactive) | GI50 (SK-MEL-5): 3.64 µM (inactive) | GI50 (SNB-75): 4.98 µM (inactive)

Cc1cc2c(cc1C)NC1=C(O)C(c3c[nH]c4ccc(COc5ccccc5)cc34)OC1=N2 (stereo not given)
GI50 (COLO 205): > 100 µM (inactive) | GI50 (DU-145): > 100 µM (inactive) | GI50 (HCC 2998): 17.1 µM (inactive) | GI50 (HCT-116): 96.8 µM (inactive) | GI50 (HCT-15): > 100 µM | GI50 (HL-60): > 100 µM (inactive) | GI50 (HOP-62): 20.4 µM (inactive) | GI50 (HOP-92): 33.3 µM (inactive) | GI50 (IGROV-1): 60.8 µM (inactive) | GI50 (M14): > 100 µM (inactive) | GI50 (MDA-MB-435): > 100 µM (inactive) | GI50 (NCI-H226): 58.7 µM (inactive) | GI50 (NCI-H460): > 100 µM (inactive) | GI50 (OVCAR-3): > 100 µM (inactive) | GI50 (OVCAR-5): > 100 µM (inactive) | GI50 (PC-3): > 100 µM (inactive) | GI50 (SF-268): 64.9 µM (inactive) | GI50 (SF-539): 27.4 µM (inactive) | GI50 (SK-MEL-5): > 100 µM (inactive) | GI50 (SNB-75): 14.9 µM (inactive)

CCOC(=O)c1cc(C2CCN(Cc3ccccc3)C2=O)c(C(=O)C(=[N+]=[N-])C(C)=O)[nH]1 (stereo not given)
GI50 (COLO 205): > 100 µM (inactive) | GI50 (DU-145): > 100 µM (inactive) | GI50 (HCC 2998): > 100 µM (inactive) | GI50 (HCT-116): > 100 µM (inactive) | GI50 (HCT-15): > 100 µM | GI50 (HL-60): > 100 µM (inactive) | GI50 (HOP-62): > 100 µM (inactive) | GI50 (HOP-92): > 100 µM (inactive) | GI50 (IGROV-1): > 100 µM (inactive) | GI50 (M14): > 100 µM (inactive) | GI50 (MDA-MB-435): > 100 µM (inactive) | GI50 (NCI-H226): > 100 µM (inactive) | GI50 (NCI-H460): > 100 µM (inactive) | GI50 (OVCAR-3): > 100 µM (inactive) | GI50 (OVCAR-5): > 100 µM (inactive) | GI50 (PC-3): > 100 µM (inactive) | GI50 (SF-268): > 100 µM (inactive) | GI50 (SF-539): > 100 µM (inactive) | GI50 (SK-MEL-5): > 100 µM (inactive) | GI50 (SNB-75): > 100 µM (inactive)
